The record followed here is paper PMC8808171, “Nonselective TRPC channel inhibition and suppression of aminoglycoside-induced premature termination codon readthrough by the small molecule AC1903” (The Journal of Biological Chemistry, 2022).

By IC50 is commonly meant the concentration needed to halve the response being measured. High values mean weaker potency, low ones greater potency. For orientation: Hill slope means the slope factor of the fitted curve.

The target of one experiment is T1, TRPC3:C3 (Homo sapiens, UniProt Q13507).
T1 construct: expressed in transfected cells
Kind of experiment: [Ca2+]i recordings (Fura-2), TRPC3:C3 in HEK T-REx cells. Format: cell-based. As for the experimental part: (§1) Based on the findings described above, we wondered whether AC1903—which is typically used as a TRPC5 inhibitor at concentrations of 30–100 μM in cellular assays ([29], [56])—might have limited selectivity for TRPC5 channels and whether its effect on intracellular G418 levels and PTC readthrough might be the consequence of inhibition of other or multiple targets. All well-characterized TRPC channel inhibitors reported to date modulate multiple TRP(C) channels ([34], [35], [36]). […] Because limited data for the selectivity of AC1903 are available in the public domain, we decided to profile AC1903 against a selection of calcium-permeable cation channels by intracellular calcium ([Ca^2+]i) recordings using well-characterized cell lines and TRP channel activators ([46], [57], [58]), and the Ca^2+ indicator Fura-2. In these assays, cells (HEK 293, HEK T-REx, or CHO) overexpressing the relevant ion channel protein and loaded with Fura-2 AM (a cell-permeable precursor of Fura-2) were preincubated with various concentrations of AC1903 or vehicle (DMSO) for 30 min. Then, changes in ratiometric fluorescence (from background) were recorded upon addition of the respective ion channel activator. […]

Another experiment addresses T2, TRPC6:C6 (Homo sapiens, UniProt Q9Y210).
T2 construct: expressed in transfected cells; host or cells: WT HEK 293 (transient)
The experiment is described as follows: [Ca2+]i recordings (Fura-2), TRPC6:C6 in HEK 293 cells. Format: cell-based. As for the experimental part: as §1

T2 sequence (Q9Y210 whole entry): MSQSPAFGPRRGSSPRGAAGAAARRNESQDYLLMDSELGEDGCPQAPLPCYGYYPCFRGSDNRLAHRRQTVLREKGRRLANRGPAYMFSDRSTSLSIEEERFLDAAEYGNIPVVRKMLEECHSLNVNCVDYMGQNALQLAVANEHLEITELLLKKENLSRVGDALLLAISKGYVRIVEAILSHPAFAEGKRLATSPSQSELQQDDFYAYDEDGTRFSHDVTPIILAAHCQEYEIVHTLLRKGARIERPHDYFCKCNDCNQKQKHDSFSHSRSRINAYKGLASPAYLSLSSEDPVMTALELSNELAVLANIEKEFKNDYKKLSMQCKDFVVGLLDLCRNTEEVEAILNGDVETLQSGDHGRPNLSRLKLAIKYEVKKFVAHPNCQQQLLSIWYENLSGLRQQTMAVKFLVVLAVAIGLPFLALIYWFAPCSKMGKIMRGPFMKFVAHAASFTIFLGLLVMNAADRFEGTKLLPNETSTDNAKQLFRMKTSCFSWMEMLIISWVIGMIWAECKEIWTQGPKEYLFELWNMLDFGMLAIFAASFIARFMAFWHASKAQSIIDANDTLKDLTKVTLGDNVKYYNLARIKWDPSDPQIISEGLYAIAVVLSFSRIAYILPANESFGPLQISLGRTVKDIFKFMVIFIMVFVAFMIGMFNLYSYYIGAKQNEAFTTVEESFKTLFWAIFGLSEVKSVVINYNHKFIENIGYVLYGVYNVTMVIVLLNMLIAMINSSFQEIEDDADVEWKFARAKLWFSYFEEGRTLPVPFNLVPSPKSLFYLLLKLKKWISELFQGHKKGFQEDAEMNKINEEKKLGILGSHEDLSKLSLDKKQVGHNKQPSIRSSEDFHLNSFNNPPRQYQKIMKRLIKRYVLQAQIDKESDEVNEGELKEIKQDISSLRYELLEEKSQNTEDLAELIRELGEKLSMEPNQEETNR
T1 sequence (Q13507 whole entry): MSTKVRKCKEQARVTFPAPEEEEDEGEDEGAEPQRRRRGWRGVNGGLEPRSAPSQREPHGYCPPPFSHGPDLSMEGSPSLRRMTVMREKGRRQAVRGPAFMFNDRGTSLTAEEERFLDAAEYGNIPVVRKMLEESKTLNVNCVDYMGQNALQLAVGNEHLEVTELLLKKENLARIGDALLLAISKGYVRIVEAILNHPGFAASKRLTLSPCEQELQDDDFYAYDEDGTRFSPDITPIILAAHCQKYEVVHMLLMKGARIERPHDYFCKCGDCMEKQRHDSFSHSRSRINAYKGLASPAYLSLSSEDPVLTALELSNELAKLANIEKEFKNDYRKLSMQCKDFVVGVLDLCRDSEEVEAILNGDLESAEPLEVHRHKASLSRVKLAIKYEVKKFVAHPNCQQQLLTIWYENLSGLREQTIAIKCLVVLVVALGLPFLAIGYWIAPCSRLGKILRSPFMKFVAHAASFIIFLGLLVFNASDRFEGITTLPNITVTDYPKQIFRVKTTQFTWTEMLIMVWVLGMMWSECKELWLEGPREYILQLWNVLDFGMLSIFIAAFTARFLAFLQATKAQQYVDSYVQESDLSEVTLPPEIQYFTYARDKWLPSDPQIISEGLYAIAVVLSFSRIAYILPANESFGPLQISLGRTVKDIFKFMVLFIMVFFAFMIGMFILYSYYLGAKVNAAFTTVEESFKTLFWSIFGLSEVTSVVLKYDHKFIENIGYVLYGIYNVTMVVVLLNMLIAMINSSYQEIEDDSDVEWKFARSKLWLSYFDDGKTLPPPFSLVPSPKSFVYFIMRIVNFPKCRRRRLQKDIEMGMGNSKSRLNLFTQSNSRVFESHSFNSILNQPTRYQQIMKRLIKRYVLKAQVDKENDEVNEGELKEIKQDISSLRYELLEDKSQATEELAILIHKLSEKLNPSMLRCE

Consider `c1ccc(Cn2c(NCc3ccco3)nc3ccccc32)cc1` [AC1903], for which the IC50 is 5.2 µM against TRPC3:C3 (HEK T-REx, activator OAG (100 μM)) and 15 µM against TRPC6:C6 (HEK 293, activator OAG (100 μM)). Further, the Hill slope on TRPC3:C3 (activator OAG) is -1.4; on TRPC6:C6 (activator OAG) it was -1.5.
